Experimental data as given in patent publication US20140121236A1, “Compositions and Methods for Treating Myotonic Dystrophy Type 1” (UNIVERSITY OF SOUTHERN CALIFORNIA, priority 2012, published 2014).

Tests used:
[1] = tested on: DM1 myoblasts; test: Toxicity by shape and size of the nuclei of DM1 myoblasts; format: cell-based, human; details: Table 1, 10 μM, 4 days
[2] = tested on: SHARP; test: SHARP immunofluorescence in DM1 myoblasts; format: cell-based, human; details: RCN-001 treatment for 4 days (not shown)
Description: DM1 myoblasts were then treated with 10 μM of either RCN-001 or the vehicle (DMSO) for 4 days and then examined by FISH using a Cy3 (CAG)10 probe.
CUG-RNA foci were detected by performing FISH on untreated DM1 myoblasts and DM1 myoblasts following treatment. For FISH analysis, DM1 myoblasts were plated on a 24-well clear bottom polystyrene plate with circular glass coverslips followed by treatment. Prior to FISH analysis, cells were fixed using 4% paraformaldehyde in 1×PBS for 20 min at room temperature. FISH analysis was performed using a Cy3 conjugated (CAG)10 oligonucleotide probe (Integrated DNA Technologies, Inc.) as described by Taneja et al, 1995 and Dansithong et al, 2005. CUG-RNA foci were observed as a red signal using fluorescence microscopy. Immunofluorescence was performed as described by Dansithong et al, 2008. Endogenous SHARP was detected using SHARP polyclonal antibodies from Bethyl at a dilution of 1:1000. The secondary antibodies conjugated with FITC (Invitrogen) were used at a 1:2000 dilution. Chloride channel 1 (Clcn1 a.k.a. CIC-1) was detected using CIC-1 polyclonal antibodies from Santa Cruz. The secondary antibodies conjugated with Alexa Flour 488 (Invitrogen) were used at a 1:2000 dilution. FISH analysis in mouse muscle section was carried out as described in Mancodi et al, 2000 (9).

[3] = tested on: Clcn1, lbd3 and Serca-1 RNA splicing in HSALR mice; test: RT-PCR splicing analysis of skeletal muscle RNA of treated HSALR mice; format: in vivo; details: 40 mg/kg i.p. each day for 7 days
Source text: A. Total RNA was isolated from age and gender matched wild-type mice, HSA^LR mice and HSA^LR mice treated with either saline or 40 mgs/kg of RCN-001 injected i.p. once a day for 7 days. Subsequent to treatment RNA was isolated from skeletal muscles and subjected to RT-PCR analysis using the indicated primers sets for Clcn1, Lbd3 and Serca-1 RNAs. GAPDH RNA was amplified in parallel as an internal control. The results of two experiments are shown. B. Bar graph representation of rescue achieved is shown. C. The relative levels of exon inclusion was measured by densitometry and tabulated as mean % exon inclusion +/− standard deviation.
Furthermore, CUG foci, abnormal RNA splicing, myotonia and reduced Clcn1 protein levels are reversed in HSA^LR mice treated with RCN-001: Age and gender matched HSA^LR mice were treated with either vehicle or 40/mgs/kg of RCN-001 injected i.p. each day for 7 days. After treatment CUG foci were examined and RNA isolated from skeletal muscle was subjected to RT-PCR analysis to examine the efficacy of RCN-001 in correcting the splice defects of Clcn1, lbd3 and Serca-1 RNAs, which are abnormally spliced in DM1 (20).
Treatment in HSALR mice. […]
The relative band intensities were quantified by densitometry analyses and the percent of exon inclusion was calculated as [exon inclusion/(exon inclusion+exon exclusion)]×100.

[4] = tested on: wild-type and HSALR mice; test: Off-target splicing and RNA steady-state levels in mice; format: in vivo
Source text: Results for wild-type and HSA^LR mice are not shown.

[5] = tested on: CUG-RNA foci in DM1 myoblasts; test: FISH analysis of nuclear CUG-RNA foci in DM1 myoblasts; format: cell-based, human; details: 2 μM, 4 days (not shown)

CCCCCCc1cc2cc(-c3nnc(-c4cccc(OC)c4)o3)c(=O)oc2cc1O [RCN-001]
Toxicity: Toxic [1]: ++++ (60% alterations in nuclei shape and size) | SHARP mislocalization / nuclear SHARP levels in DM1 myoblast [2]: significantly reversed SHARP mislocalization and re-established nuclear SHARP levels | rescue of splice defects of Clcn1, lbd3 and Serca-1 RNAs [3]: achieved rescue of splice defects that was comparable to results obtained with AON | off target effects on steady-state levels of endogenous (CUG)6-25 repeat encoding RNAs ([4]; wild-type and HSALR mice (not shown)): does not show significant off target effects | splice patterns of RNAs that are abnormally spliced in DM1 ([4]; wild-type mice (not shown)): does not alter splice patterns | splice patterns of RNAs that are normally spliced in DM1 ([4]; wild-type or HSALR mice (not shown)): does not alter splice patterns | decrease in cells containing 3 or more foci [5]: 2 fold | increase in cells containing no foci [5]: 5 fold
